According to patent US10857112B2, “Small molecule inhibitors of RNA binding motif (RBM) proteins for the treatment of acute cellular injury” (University of Pittsburgh—Of the Commonwealth System of …, priority 2012, dated 2020):

Key:
RBM5 = target: T1, RBM5 (Homo sapiens, UniProt P52756); conditions: cited from earlier work
T1 sequence (P52756 181-210 limits assumed): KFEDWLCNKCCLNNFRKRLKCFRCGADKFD

4-HNE = experiment: Lipid peroxidation (4-HNE western blot) in neurons; type: cell-based, rat
Description: To test if AQ2S promotes lipid peroxidation in neurons, at D.I.V. 12, culture media was exchanged with Neurobasal/B27 (−AO) in the absence or presence of […] for 48 hours. D.I.V. 14 neurons were harvested and analyzed for 4-HNE levels.
Injury (e.g. brain ischemia), robustly increases endogenous reactive oxygen species (ROS) levels. ROS may promote the formation of deleterious quinone radicals and increase lipid peroxidation. The potential enhancement by AQ2S of lipid peroxidation induced by 200 μM H2O2 was evaluated. D.I.V. 13 neurons were treated for 4.5 hours with 200 μM H2O2 in fresh neurobasal/B27 (−AO) in the presence or absence of 125 μM AQ2S. 200 μM H2O2 increased 4-HNE levels. The asterisk in FIG. 17b indicates an approximate 40-45 KDa band, particularly, sensitive to treatment.
Neurons used for Western blot analysis for grown in 6-well plates. Briefly, neurons were treated with experimental compounds for the indicated time/conditions. At the end of each experiment, neurons were washed in ice cold PBS and harvested in 65 μL RIPA buffer containing protease inhibitors, phosphatase inhibitors, and EDTA. Extracts were collected in 0.5 mL tubes and sonicated for 20-30 seconds. Cell extracts were then spun at 4° C./16,000 g/10 minutes and stored at −80° C. until use. Frozen extracts were thawed on ice and protein concentration measured using the BCA assay (PIERCE). […]

[1] = system: Human derived myocardial heart cells; experiment: STS injury in human heart cells, viability (CellTiter Blue); type: cell-based; conditions: 24 hour co-treatment; 500 nM or 1 μM STS, 125 μM AQ2S
Description: Human derived myocardial heart cells were seeded onto 96-well plates. 24 hours later cells were injured with STS.
Optimal cell death conditions were established in heart cells. Heart cells were treated with STS at increasing doses for 24 hours (FIG. 28A). […] Heart cells were treated with 500 nM STS+/−125 μM AQ2S or 1 μM STS+/−125 μM AQ2S for 24 hours. Cell viability was measured 24 hours later and expressed as relative fluorescent units (RFU). […] Data were analyzed by ANOVA (p<0.0001); Fisher LSD post-hoc test. * indicates p<0.05. Graphs show Mean+SEM.

caspase-9 = experiment: STS-induced caspase-9 activity in neurons; type: cell-based, rat; conditions: 150 nM STS 24 hours; co-treatment 75 μM
[2] = system: primary rat cortical neurons; experiment: Ischemia (OGD) injury, neuron viability; type: cell-based; conditions: 1 hour OGD; 75 μM during and after injury; 24 hours
Description: AQ2S was dissolved in 100% DMSO (vehicle). Rat cortical neurons were isolated from E17 embryos, and seeded onto 96-well plates at a density of 7.5×10^4/well. At D.I.V. 10-11 culture maintenance media was replaced with treatment media (Modified Eagles Buffered Solution) without or with 25 μM Glucose. In addition, neurons were incubated with or without oxygen (induced by placement of cell plates in an anoxic chamber flushed with a gas mixture to remove oxygen). OGD injury was administered for 1 hour. […] Neuron viability was measured 24 hours post-injury by incubation with CellTiter Blue reagent (PROMEGA) for 3.5 hours. CellTiter Blue is metabolized into a fluorescent reagent only in living cells. The level of fluorescence (expressed as relative fluorescent units; RFU) was measured on a plate reader (PROMEGA).
Primary rat cortical neurons were grown onto 96-well plates. Neurons were injured by a 1 hour treatment with/without 25 μM glucose and with/without oxygen. DMSO or 75 μM AQ2S were added to OGD treatment media during the 1 h ischemic injury period. After 1 hour injury, cells were returned to regular growth media and normoxic culture conditions (i.e. 95% […]/5% CO2) with either DMSO or 75 μM AQ2S. Cell viability was measured 24 hours later and expressed as relative fluorescent units (RFU). […] Data were analyzed by ANOVA (p<0.0001); Fisher LSD post-hoc test. * indicates p<0.05. […]

AKT = experiment: Western blot of AKT activation (pAKT473); type: cell-based, rat
Description: AKT is a key pro-survival kinase that is dysregulated by acute brain injury. Many diverse therapies used to prevent neuronal death activate AKT, including small molecules, endogenously derived survival proteins, and other non-pharmacology based treatments like therapeutic hypothermia. To further elucidate the mechanisms of AQ2S-mediated neuroprotection, the level of activated (phosphorylated) AKT was measured by western blot.
Neurons used for Western blot analysis for grown in 6-well plates. Briefly, neurons were treated with experimental compounds for the indicated time/conditions. At the end of each experiment, neurons were washed in ice cold PBS and harvested in 65 μL RIPA buffer containing protease inhibitors, phosphatase inhibitors, and EDTA. Extracts were collected in 0.5 mL tubes and sonicated for 20-30 seconds. Cell extracts were then spun at 4° C./16,000 g/10 minutes and stored at −80° C. until use. Frozen extracts were thawed on ice and protein concentration measured using the BCA assay (PIERCE). […] of sample protein was loaded per well of a 7.5% SDS precast gel (Biorad), and run for 30 minutes to 1 hour at 200 V. Kaleidoscope protein standards (Biorad) were run parallel to neuron extracts. Proteins were then transferred to PDVF membranes (run at 100 V/4° C./1.5 hours). PDVF membranes were washed once in tris buffered saline (TBS) and blocked for 1 hour in tris buffered saline/tween-20 with 7.5% nonfat milk (TBS-T/milk). Blots were incubated overnight at 4° C. with primary antibodies in TBS-T/milk. Cell Signaling Technology: phospho-AKT473, AKT Total, phospho-ERK1/2, ERK Total, cleavage caspase-3. Santa Cruz Antibodies: NF-κB p50 subunit, NF-κB p65 subunit, and beta actin. Calbiochem: 4-HNE antibody. Blots were washed 3 times (5 minutes each) with TBS, and incubated with secondary antibodies for 2 hours. Invitrogen: goat anti-rabbit or goat anti-mouse. Blots were washed 3 times (5 minutes each) with TBS, and incubated for 1 minute in HRP detection solution (Amersham). Films were exposed to blots and developed (SRX-101A, Konica Minolta Medical & Graphic Inc.). Re-probed blots (e.g. beta actin, AKT total, ERK total) were stripped in western blot stripping buffer (Fischer Scientific) for 10 minutes, washed once with TBS, re-blocked in TBS-T/milk for 1 hour, and incubated overnight with new primary antibody. Films were scanned (EPSON GT 20,000), and densitometry performed using UN-SCAN-IT software (Silk Scientific).

caspase-3 = experiment: STS-induced caspase-3 (3/7) activity in neurons; type: cell-based, rat
Description: The Caspase3/7-GLO assay uses the exact same reagents as the CellTiter-GLO assay accept for the addition of a luciferin substrate crosslinked to an amino acid caspase cleavage target. Activation of caspases frees luciferin. Luciferin can then be oxidized by luciferase, thereby initiating a light reaction. Luminescence was measured using a luminometer.

In the case of `O=C1c2ccccc2C(=O)c2cc(S(=O)(=O)O)ccc21` [AQ2S, anthraquinone-2-sulfonic acid], the “targeting of zinc-finger domain in RBM5” value (RBM5; Farina et al. 2011) is given as “selective and potent target of the zinc-finger domain in pro-apoptotic RBM5 and inhibits its function”, the IC50 (RBM5; read-out: IC50 of AQ2S to inhibit RBM5) is given as about 82 µM and the 4-HNE staining (4-HNE; 200 μM H2O2 4.5 hours, 125 μM) is given as “did not significantly up-regulate 4-HNE staining”. The “basal level of 4-HNE” value (4-HNE; uninjured, 125 AQ2S 48 hours) was “did not significantly increase the basal level of 4-HNE”, the “heart cell viability after STS” value [1] was “increased viability” and the caspase-9 activity (caspase-9) was “significantly reduced baseline and injury activity levels”. For the same compound, the “viability after ischemic (OGD) injury” value [2] was “significantly increases viability”, the pAKT473 (AKT; 250 nM STS 6 hours, AQ2S) was “marginally increased STS-induced pAKT473 at the 6-hour time point, but did not reach statistical significance” and the pAKT473 (AKT; 250 nM STS 21 hours, 125 μM AQ2S) was “pAKT473 increased in the presence of AQ2S”. For the same compound, the “AKT activity (pAKT473)” value (AKT; 125 μM, 17 hours STS injury) was “significant elevation in AKT activity”, the “ratio of pAKT473/AKT” value (AKT; 125 μM, 17 hours STS injury) was “highest in the AQ2S treated group” and the AKT total (AKT; non-injury, 125 μM) was “No effect on AKT total was observed”. The pAKT473 (AKT; non-injury, 125 μM, 4 hours) was “significant (but modest) rise in pAKT473”, the pAKT473 (AKT; non-injury, 125 μM, 24 hours) was “not significant at 24 hours” and the caspase-3 activity (caspase-3; 150 nM STS 24 hours, co-treatment 75 μM) was “significantly reduced baseline and injury activity levels”. The “STS-induced caspase-3 activation” value (caspase-3; 250 nM STS 24 hours) was “completely blocked STS-induced caspase-3 activation” and the “potency among caspase-3, -8 and -9” value (caspase-3; 75 μM) was “greatest potency against caspase-3”.
